Source: paper PMC11259170, “Small-molecule probe for IBD risk variant GPR65 I231L alters cytokine signaling networks through positive allosteric modulation” (Science Advances, 2024)
Read-outs that look alike come from different tables or passages of the source.

What was measured:
mGPR65 = target: T1, mGPR65 (Mus musculus, UniProt Q61038); test: cAMP detection in HeLa expression cell line, mGPR65; format: cell-based; conditions: for Emax: HeLa, read-out: mGPR Max Activity %; for cAMP production relative to BRD2813, mGPR65: pH 7.2
T1 construct: expressed in transfected cells; host or cells: HeLa (ATCC CCL-2), lentiviral transduction, pLX317
Procedure: (§1) HeLa stable expression cell lines were produced by lentiviral transduction. Briefly, lentiviral plasmids for each GPCR with a C-terminal V5 Tag ([…]) were made in a pLX317 backbone using competent Escherichia coli (New England Biolabs, C3050H). Lenti-X 293 T (Takara, 632810) cells were transfected with the lentiviral plasmids to produce virus. Low-passage HeLa cells (American Type Culture Collection, CCL-2) were then transduced with lentivirus. After 48 hours, HeLa cells were cultured under selection with puromycin (3 μg/ml) and allowed to recover and expand before storing stocks in liquid nitrogen.
(§2) cAMP was measured in cells using the Lance Ultra cAMP Kit. HeLa cells were cultured under puromycin (3 μg/ml) selection. One day before the experiment, cells were seeded in T75 flasks and allowed to adhere overnight. On the day of the experiment, cells were washed twice with Dulbecco’s PBS and lifted using prewarmed 1× versene solution (Gibco, 15040066). Cells were counted in HBSS (Gibco, 14025092) and then resuspended in stimulation buffer prepared according to the manufacturer’s instructions and adjusted to pH 7.2 using 1 M sodium hydroxide. Cells were added to the plate at a density of 1500 cells per well in white opaque 384-well assay ready microplates containing 100 nl of 10 mM compound in DMSO. Cells were stimulated for 30 min at RT, then lysed and incubated with detection reagents for 1 hour in the dark at RT. Plates were read on BMG Labtech PHERAstar FSX (excitation, 337 nm; emission, 620 and 665 nm). Data analysis was performed using GraphPad Prism.

[1] = test system: GFP-expressing HeLa cells; test: cAMP detection in HeLa expression cell line, GFP control; format: cell-based, human; conditions: Homo sapiens, HeLa; for Emax: relative to 100uM forskolin (100%) and DMSO (0%), read-out: GFP Max Activity %
Procedure: as §1, §2

hGPR65 = target: T2, hGPR65 (Homo sapiens, UniProt Q8IYL9); test: cAMP detection in HeLa expression cell line, hGPR65; format: cell-based; conditions: for Emax: HeLa, read-out: hGPR Max Activity %; for cAMP production relative to BRD2813, hGPR65: pH 7.2
T2 construct: expressed in transfected cells; host or cells: HeLa (ATCC CCL-2), lentiviral transduction, pLX317
Procedure: as §1, §2

[2] = 1st mGPR column pair, NA = no activity, read-out: mGPR EC50
[3] = 2nd mGPR column pair, NA = no activity, read-out: mGPR EC50
[4] = 2nd mGPR column pair, relative to 100uM forskolin (100%) and DMSO (0%), NA = no activity
[5] = relative to 100uM forskolin (100%) and DMSO (0%), NA = no activity
[6] = 2nd GFP column pair, NA = no activity
[7] = 1st hGPR column pair, NA = no activity, read-out: hGPR EC50
[8] = 2nd hGPR column pair, NA = no activity, read-out: hGPR EC50
[9] = 1st hGPR column pair, relative to 100uM forskolin (100%) and DMSO (0%), NA = no activity
[10] = 2nd hGPR column pair, relative to 100uM forskolin (100%) and DMSO (0%), NA = no activity
[11] = 1st GFP column pair, NA = no activity
[12] = mGPR EC50 (uM), NA = no activity
[13] = second pair, relative to 100uM forskolin (100%) and DMSO (0%)
[14] = mGPR EC50 (uM), 2nd mGPR column pair, NA = no activity
[15] = hGPR EC50 (uM), NA = no activity

T1 sequence (Q61038 whole entry): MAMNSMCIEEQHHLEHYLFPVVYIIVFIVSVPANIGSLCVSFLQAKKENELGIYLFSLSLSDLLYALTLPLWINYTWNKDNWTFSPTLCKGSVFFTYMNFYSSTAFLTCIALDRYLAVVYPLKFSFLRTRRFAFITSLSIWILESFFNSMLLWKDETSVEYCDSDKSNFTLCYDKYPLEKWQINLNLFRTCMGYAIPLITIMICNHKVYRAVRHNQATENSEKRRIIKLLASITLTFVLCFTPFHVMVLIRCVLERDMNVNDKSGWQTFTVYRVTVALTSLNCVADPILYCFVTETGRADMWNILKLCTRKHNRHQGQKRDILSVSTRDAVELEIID
T2 sequence (Q8IYL9 whole entry): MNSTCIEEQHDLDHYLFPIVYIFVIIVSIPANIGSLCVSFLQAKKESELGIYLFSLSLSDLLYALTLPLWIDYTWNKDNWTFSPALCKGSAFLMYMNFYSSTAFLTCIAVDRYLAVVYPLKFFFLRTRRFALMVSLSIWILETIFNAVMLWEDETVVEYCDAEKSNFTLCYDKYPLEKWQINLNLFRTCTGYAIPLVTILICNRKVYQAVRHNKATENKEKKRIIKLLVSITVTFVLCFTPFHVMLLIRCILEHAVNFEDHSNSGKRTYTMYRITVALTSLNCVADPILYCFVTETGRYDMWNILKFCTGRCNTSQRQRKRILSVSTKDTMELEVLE

SMILES	EC50 (mGPR65; [2])	EC50 (mGPR65; [3])	Emax (mGPR65; [4])	Emax (mGPR65; [5])	EC50 [1, 6]	Emax [1, 6]	EC50 (hGPR65; [7])	EC50 (hGPR65; [8])	Emax (hGPR65; [9])	Emax (hGPR65; [10])	EC50 [1, 11]	Emax [1, 11]	also measured
CC(C)OCc1ccc(-c2cc(O)n3ncc(C(=O)Nc4cccnc4)c3n2)cc1 [BRD5077]	2.51 µM	2.72 µM	62.4%	70%	1.62 µM	3.65%	5.55 µM	8.26 µM	57.8%	70.1%	–	–	–
Cc1ccc(NC(=O)c2cnn3c(O)cc(-c4ccc(COC(C)C)cc4)nc23)c(Cl)c1 [BRD5081]	1.01 µM	1.14 µM	60.4%	66.3%	–	–	4.26 µM	7.63 µM	80.6%	63.4%	1.62 µM	2.48%	–
Cc1ccc(NC(=O)c2cnn3c(O)cc(-c4ccc(C(N)=O)cc4)nc23)cc1 [BRD5082]	–	–	–	4.93%	17.9 µM	7.17%	–	–	0%	–	38.5 µM	14.2%	EC50 (mGPR65; [12]): 12.3 µM; cAMP production relative to BRD2813, mGPR65 (mGPR65): eliminated all cAMP activity; cAMP production relative to BRD2813, hGPR65 (hGPR65): eliminated all cAMP activity
CNC(=O)c1ccc(-c2cc(O)n3ncc(C(=O)Nc4ccc(C)cc4)c3n2)cc1 [BRD5083]	–	99.6 µM	106%	–	6.27 µM	1.9%	26.2 µM	–	75.2%	–	–	–	–
Cc1ccc(NC(=O)c2cnn3c(O)cc(-c4ccc(C(=O)N(C)C)cc4)nc23)cc1 [BRD5084]	2.98 µM	1.63 µM	31.2%	32.1%	33.6 µM	7.64%	2 µM	1.23 µM	39.1%	40.2%	11.5 µM	5.15%	–
Cc1ccc(NC(=O)c2cnn3c(O)cc(-c4ccc(C(F)(F)F)cc4)nc23)cc1 [BRD5668]	3.49 µM	6.28 µM	-22.2%	-22.7%	0.183 µM	1.82%	0.114 µM	0.587 µM	77%	70.8%	–	–	–
Cc1ccc(NC(=O)c2cnn3c(O)cc(-c4ccc(C5CCCCC5)cc4)nc23)cc1 [BRD5881]	–	–	–	–	–	–	–	–	–	–	–	–	Emax (mGPR65; [13]): 9.83%; EC50 (mGPR65; SAR cAMP assay, second EC50/Max pair of mGPR columns, read-out: mGPR EC50): 0.579 µM; EC50 ([1]; SAR cAMP assay, second EC50/Max pair of GFP control columns): 0.453 µM; Emax ([1]; second pair): 1.64%; Emax (hGPR65; first pair, relative to 100uM forskolin (100%) and DMSO (0%)): 39.5%; Emax (hGPR65; [13]): 95.7%; EC50 (hGPR65; SAR cAMP assay, first EC50/Max pair of hGPR columns, read-out: hGPR EC50): 3.88 µM; EC50 (hGPR65; SAR cAMP assay, second EC50/Max pair of hGPR columns, read-out: hGPR EC50): 90.6 µM
COc1cccc(-c2cc(O)n3ncc(C(=O)Nc4ccc(C)cc4)c3n2)c1 [BRD6202]	0.378 µM	0.451 µM	58.8%	63.3%	0.195 µM	3.9%	1.3 µM	1.75 µM	72.3%	73.6%	3.17 µM	1.48%	–
CCS(=O)(=O)c1ccc(NC(=O)c2cnn3c(O)cc(-c4ccc(COC)cc4)nc23)cc1 [BRD7157]	10.7 µM	14.6 µM	19.6%	64.9%	16.7 µM	6.57%	–	–	–	–	–	–	EC50 (mGPR65; 3rd mGPR column pair, NA = no activity, read-out: mGPR EC50): 4.47 µM; mGPR Max Activity (mGPR65; [5]): 44.17%; EC50 (hGPR65; NA = no activity, read-out: hGPR EC50): 27.2 µM; hGPR Max Activity (hGPR65; [5]): 17.41%
Cc1ccc(NC(=O)c2cnn3c(O)cc(-c4ccc(N5CCN(C)CC5)cc4)nc23)cc1 [BRD7215]	–	–	48.7%	57.8%	63.5 µM	7.18%	–	–	48.2%	57.7%	–	–	EC50 (mGPR65; [14]): 1.1 µM; EC50 (mGPR65; [12]): 0.161 µM; cAMP production relative to BRD2813, mGPR65 (mGPR65): increasing activity; EC50 (hGPR65; [15]): 2.74 µM; EC50 (hGPR65; hGPR EC50, NA = no activity): 4.39 µM; cAMP production relative to BRD2813, hGPR65 (hGPR65): decreasing cAMP production
CCCc1cc(-c2cc(O)n3ncc(C(=O)Nc4ccc(C)cc4)c3n2)no1 [BRD8472]	0.103 µM	0.397 µM	55.4%	59.4%	–	–	1.25 µM	0.79 µM	67.7%	51.3%	24.9 µM	2.75%	–
Cc1ccc(NC(=O)c2cnn3c(O)cc(-c4ccc(N5CCC(=O)CC5)cc4)nc23)cc1 [BRD8536]	0.98 µM	2.81 µM	52.9%	63.5%	–	–	4.05 µM	5.53 µM	65.7%	63.9%	0.801 µM	1.86%	–
Cc1ccc(NC(=O)c2cnn3c(O)cc(-c4ccc(-c5ccccc5)cc4)nc23)cc1 [BRD8716]	0.368 µM	0.528 µM	33.1%	40.2%	5.6 µM	1.51%	0.171 µM	0.284 µM	79.2%	72.4%	7.3 µM	1.95%	potency and total cAMP production relative to BRD2813 (hGPR65; receptor not given): improved potency but had little effect on total cAMP production
COCc1ccc(-c2cc(O)n3ncc(C(=O)Nc4ccccc4)c3n2)cc1 [BRD9876]	–	–	34.4%	45.3%	25.7 µM	3.97%	–	–	81.6%	79.5%	3.62 µM	1.96%	EC50 (mGPR65; [14]): 4.76 µM; EC50 (mGPR65; [12]): 4.06 µM; cAMP production relative to BRD2813, mGPR65 (mGPR65): decreased potency; EC50 (hGPR65; [15]): 8.06 µM; EC50 (hGPR65; hGPR EC50, NA = no activity): 12 µM; cAMP production relative to BRD2813, hGPR65 (hGPR65): detrimental to potency
